# Patent US5516789A, “Lipoxygenase and cyclooxygenase inhibiting compounds” (Abbott Laboratories, priority 1995, dated 1996)
# Key:
# [1] = tested on: LTB4 formation in human whole blood; test: Calcium ionophore (A23187)-induced LTB4 biosynthesis in human whole blood; type: cell-based; conditions: human heparinized whole blood; 15 min preincubation at 37° C.; A23187 50.0 μM, 30 min; read-out: IC50, in vitro inhibitory potency against stimulated LTB4 formation in human whole blood
# Method: Inhibition of leukotriene biosynthesis was evaluated in an assay, involving calcium ionophore-induced LTB4 biosynthesis in human whole blood. Human heparinized whole blood was preincubated with test compounds or vehicle for 15 min at 37° C. followed by calcium ionophore A23187 challenge (final concentration of 50.0 μM) and the reaction terminated after 30 min by adding two volumes of methanol. The methanol extract was analyzed for LTB4 using a commercially available immunoassay.
# [2] = tested on: biosynthesis of leukotrienes; test: Rat peritoneal anaphylaxis model, inhibition of leukotriene biosynthesis in vivo after oral administration; conditions: oral gavage one hour prior to antigen challenge, @ 15 mg/kg
# Method: Inhibition of the biosynthesis of leukotrienes in vivo after oral administration of compound was determined using a rat peritoneal anaphylaxis model similar to that described by Young and coworkers (Young, P. R.; Bell, R. L.; Lanai, C.; Summers, J. B.; Brooks, D. W.; Carter, G. W. (1991): Inhibition of leukotriene biosynthesis in the rat peritoneal cavity. Eur. J. Pharmacol 1991, 205, 259-266). In this model rats were injected intraperitoneally (ip) with rabbit antibody to bovine serum albumin (BSA) and three hours later injected ip with BSA to induce an antigen-antibody response. Rats were sacrificed 15 minutes after this challenge and the peritoneal fluids were collected and analyzed for leukotriene levels. Test compounds were administered by gavage one hour prior to the antigen challenge. To measure immunoreactive leukotriene levels in the various lavage fluids, the samples were diluted 1:3 (v/v) with the EIA buffer containing 100 mM phosphate, 1.5 mM sodium azide, 400 mM sodium chloride, 0.1 mM sodium EDTA and 0.1% BSA, pH 7.4. Methanol, at a final concentration of 22%, was included in the assay standards to compensate for the amount in the biological samples. EIA reagents for cysteinyl leukotrienes determination were purchased from, Cayman Chemical Co., Ann Arbor, Mich. The LTE4 tracer was prepared in-house. The immunoassays for LTE4 were then conducted as recommended by the manufacturer with the exception that volumes were adjusted to accommodate automation using a Cetus Propette (Cetus Corp., San Francisco, Calif.). The EIA was conducted in 96 well microtiter plates (Nunc Roskilde, Denmark) and optical density measured using a microplate reader (Vmax, Molecular Devices Corp., Menlo Park, Calif.). Percent inhibition values were determined by comparing the treatment group to the mean of the control group.
# [3] = tested on: biosynthesis of prostaglandins; test: Rat pleural inflammation model (A23187), inhibition of prostaglandin biosynthesis in vivo; conditions: oral dose of 10 mg/kg, TXB2 by EIA
# Method: (§1) Pleural inflammation was induced in male rats following the method of Rao et. al., Life Sci, 1993, 53, 52. Animals were dosed with experimental compounds in 0.2% HPMC one hour prior to the intrapleural injection of the calcium ionophore, A23187. The rats were lightly anesthetized with Penthrane (Abbott Laboratories) and injected intrapleurally with 0.5 ml of 2% ethanol in injectable saline (Abbott Laboratories) containing 20 μg of A23187 (Cal BioChem-Novabiochem). Thirty minutes later the animals were euthanized and the pleural cavities lavaged with ice cold saline. The lavage fluid was then added to ice cold methanol (final methanol concentration 30%) to lyse cells and precipitate protein.
# (§2) Cyclooxygenase activity of whole blood was determined by analysis of these samples for TXB2 by EIA (Advanced Magnetics, Cambridge, Mass.).
# [4] = tested on: biosynthesis of leukotrienes; test: Rat pleural inflammation model (A23187), inhibition of leukotriene biosynthesis in vivo; conditions: oral dose of 10 mg/kg
# Method: as §1, §2
# [5] = tested on: LTB4; test: Dog ex vivo A23187-stimulated blood after oral dosing, inhibition of LTB4; type: in vivo; conditions: beagle dog, oral dose of 2 mg/kg, 8 hours after dosing; blood incubated with 50 μM A23187
# Excerpt: (§3) Inhibition of both leukotriene formation and prostaglandin formation was also shown in the dog. This was done using the method described by Carter et al. (Carter, G. W., Young, P. R., Albert, D. H., Bouska, J., Dyer, R., Bell, R. L., Summers, J. B. and Brooks, D. W.: J. Pharmacol. Exp. Ther. 256: 929-937, 1991.). Compound was suspended in 0.2% methylcellulose with a Potter-Elvehjem homogenizer equipped with a Teflon-coated pestle and administered orally to beagle dogs (Marshall Farms, North Rose, N.Y.) All animals were fasted overnight before dosing but allowed water ad libitum. Heparinized blood samples were obtained before and at various times after compound administration. Aliquots of blood were incubated at 37° with 50 μM with calcium ionophore, A23187. After 30 minutes, the blood was placed in an ice bath and analyzed for LTB4 and TXB2 as described above.
# [6] = tested on: TXB2; test: Dog ex vivo A23187-stimulated blood after oral dosing, inhibition of TXB2; type: in vivo; conditions: beagle dog, oral dose of 2 mg/kg, 8 hours after dosing; blood incubated with 50 μM A23187
# Excerpt: as §3
IC50 [1],Compound,"% Inhibition (in vivo, leukotriene biosynthesis) [2]",also measured
4000 nM,"COc1ccc2cc([C@H](C)C(=O)ON(C(N)=O)C(C)c3ccoc3)ccc2c1 (stereo partly drawn) [Example 1, N-[(S)-2-(6-methoxynaphth-2-yl)propionyloxy]-N-[1-(fur-3-yl)ethyl]urea]",,
5800 nM,"CC(C)Cc1ccc(C(C)C(=O)ON(C(N)=O)C(C)c2cc3ccccc3s2)cc1 (centres unmarked) [Example 3, N-[2-(4-(2-methylpropyl)phenyl)propionyloxy]-N -[1-(benzo[b]thien-2-yl)ethyl]urea]",,
1300 nM,"COc1ccc2cc([C@H](C)C(=O)ON(C(N)=O)C(C)C#Cc3ccc(Oc4ccc(F)cc4)o3)ccc2c1 (stereo partly drawn) [Example 18, N-[(S)-2-(6-methoxynaphth-2-yl)propionyloxy]-N-[3-(5-(4-fluorophenoxy)fur-2-yl)-1-methyl-2-propynyl]urea]",40%,
1200 nM,"CC(C)Cc1ccc(C(C)C(=O)ON(C(N)=O)C(C)C#Cc2ccc(Oc3ccc(F)cc3)o2)cc1 (centres unmarked) [Example 19, N-[2-(4-(2-methylpropyl)phenyl)propionyloxy]-N-[3-(5-(4-fluorophenoxy)fur-2-yl)-1-methyl-2-propynyl]urea]",41%,
9900 nM,"CC(C)Cc1ccc(C(C)C(=O)ON(C(N)=O)C(C)c2ccoc2)cc1 (centres unmarked) [Example 20, N-[2-(4-(2-methylpropyl)phenyl)propionyloxy]-N-[1-(fur-3-yl)ethyl]urea]",43%,
,"COc1ccc2cc([C@H](C)C(=O)ON(C(N)=O)[C@H](C)C#Cc3ccc(Cc4ccc(F)cc4)s3)ccc2c1 [Example 21, N-[(S)-2-(6-methoxynaphth-2-yl)propionyloxy]-N-[3-(5-(4-fluorophenylmethyl)thien-2-yl)-(R)-1-methyl-2-propynyl]urea]",,inhibition of the biosynthesis of prostaglandins [3]: 68%; inhibition of the biosynthesis of leukotrienes [4]: 71%; inhibition of LTB4 [5]: 54%; inhibition of TXB2 [6]: 47%

Compound,IC50 [1],"% Inhibition (in vivo, leukotriene biosynthesis) [2]",also measured
"COc1ccc2c(c1)c(CC(=O)ON(C(N)=O)C(C)c1cc3ccccc3s1)c(C)n2C(=O)c1ccc(Cl)cc1 (centres unmarked) [Example 4, N-[2-(N-(4-chlorobenzoyl)-5-methoxy-2-methyl-[1H]-indol-3-yl)acetoxy]-N-[1-(benzo[b]thien-2-yl)ethyl] urea]",1800 nM,,
"CC(=O)Oc1ccccc1C(=O)ON(C(N)=O)C(C)C#Cc1ccc(Oc2ccc(F)cc2)o1 (centres unmarked) [Example 37, N-[2-(acetoxybenzoyl)oxy]-N-[3-(5-(4-fluorophenoxy)fur-2-yl)-1-methyl-2-propynyl]urea]",160 nM,,
